Laboratory results: patent US9670227B2, “Thienopyrimidine derivatives, a process for their preparation and pharmaceutical compositions containing them” (LES LABORATOIRES SERVIER, priority 2013, dated 2017)
Read-outs that look alike come from different tables or passages of the source.

Experiments:
Mcl-1 protein = Mcl-1 protein (UniProtKB primary accession number: Q07820) (Homo sapiens, UniProt Q07820); assay: Inhibition of Mcl-1 by fluorescence polarisation, Method 1; format: binding; settings: read-out: IC50 (M) Mcl-1 FP
How it was run: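 FP readout of relative binding potency. Mcl-1 5 nM final, fluorescein-labelled ligand 1 nM final; buffer 10 mM HEPES, 150 mM NaCl, 0.05% Tween 20, pH 7.4; 11-pt dilution series, 5% DMSO final.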

[1] = test system: H929 multiple myeloma tumour line; assay: In vitro cytotoxicity, Microculture Tetrazolium Assay; format: cell-based; settings: H929 cells, 48 hours exposure, MTT, read-out: IC50 (μM) MTT H929
Experimental: The cytotoxicity studies were carried out on the H929 multiple myeloma tumour line.
The cells are distributed onto microplates and exposed to the test compounds for 48 hours.

[2] = fluorescence polarisation test, Method 2 values are underlined in the patent (underlining not visible here)
[3] = fluorescence polarisation, Method 1, or Method 2

Sequence of Mcl-1 protein (Q07820 whole entry): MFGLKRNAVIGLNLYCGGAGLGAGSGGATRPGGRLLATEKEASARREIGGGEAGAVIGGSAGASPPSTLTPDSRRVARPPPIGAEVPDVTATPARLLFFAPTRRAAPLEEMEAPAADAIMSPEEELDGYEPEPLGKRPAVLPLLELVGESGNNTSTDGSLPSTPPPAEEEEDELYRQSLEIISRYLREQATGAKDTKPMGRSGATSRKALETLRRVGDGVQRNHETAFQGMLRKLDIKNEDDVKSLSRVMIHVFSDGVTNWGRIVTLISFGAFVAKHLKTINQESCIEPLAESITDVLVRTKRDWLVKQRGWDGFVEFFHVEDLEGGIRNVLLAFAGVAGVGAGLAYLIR

Structure (SMILES) | IC50 (Mcl-1 protein; [2]) [M] | IC50 (Mcl-1 protein; [3]) [M] | IC50 [1] [µM] | IC50 ([1]; Homo sapiens, NCI-H929, 48 h) [µM]
CCCCCn1nccc1C(C)Oc1ccccc1CC(Oc1ncnc2sc(-c3ccc(F)cc3)c(-c3ccc(OCCN4CCN(C)CC4)c(Cl)c3C)c12)C(=O)O (single isomer, unassigned) [Example 6, (2R)-2-{[(5Sa)-5-{3-chloro-2-methyl-4-[2-(4-methylpiperazin-1-yl)ethoxy]phenyl}-6-(4-fluorophenyl)thieno[2,3-d]pyrimidin-4-yl]oxy}-3-{2-[(1S or R)-1-(1-pentyl-1H-pyrazol-5-yl)ethoxy]phenyl}propanoic acid] | 4.9e-09 |  | 0.332 | 
Cc1c(-c2c(-c3ccco3)sc3ncnc(OC(Cc4ccccc4OCc4cnnn4Cc4ccccc4)C(=O)O)c23)ccc(OCCN2CCN(C)CC2)c1Cl [Example 295, (2R)-3-{2-[(1-benzyl-1H-1,2,3-triazol-5-yl)methoxy]phenyl}-2-{[(5Sa)-5-{3-chloro-2-methyl-4-[2-(4-methylpiperazin-1-yl)ethoxy]phenyl}-6-(furan-2-yl)thieno[2,3-d]pyrimidin-4-yl]oxy}propanoic acid] | 4.7e-09 |  |  | 0.021
CCOc1ccccc1CC(Oc1ncnc2sc(-c3ccco3)c(-c3ccc(OCCN4CCN(C)CC4)c(Cl)c3C)c12)C(=O)O [Example 215, (2R)-2-{[(5Sa)-5-{3-chloro-2-methyl-4-[2-(4-methylpiperazin-1-yl)ethoxy]phenyl}-6-(furan-2-yl)thieno[2,3-d]pyrimidin-4-yl]oxy}-3-(2-ethoxyphenyl)propanoic acid] | 8e-09 |  |  | 0.203
Cc1cc(COc2ccccc2CC(Oc2ncnc3sc(-c4ccc(F)cc4)c(-c4ccc(OCCN5CCN(C)CC5)c(Cl)c4C)c23)C(=O)O)no1 [Example 9, (2R)-2-{[(5Sa)-5-{3-chloro-2-methyl-4-[2-(4-methylpiperazin-1-yl)ethoxy]phenyl}-6-(4-fluorophenyl)thieno[2,3-d]pyrimidin-4-yl]oxy}-3-{2-[(5-methyl-1,2-oxazol-3-yl)methoxy]phenyl}propanoic acid] | 9.3e-09 |  |  | 0.363
COc1ccccc1CC(Oc1ncnc2sc(-c3ccco3)c(-c3ccc(OCCN4CCN(C(C)C)CC4)c(Cl)c3C)c12)C(=O)O [Example 324, (2R)-2-{[(5Sa)-5-(3-chloro-2-methyl-4-{2-[4-(propan-2-yl)piperazin-1-yl]ethoxy}phenyl)-6-(furan-2-yl)thieno[2,3-d]pyrimidin-4-yl]oxy}-3-(2-methoxyphenyl)propanoic acid] | 1.5e-08 |  |  | 0.254
Cc1c(-c2c(-c3ccco3)sc3ncnc(O[C@H](Cc4ccccc4OCc4ccnc(N)n4)C(=O)O)c23)ccc(OCCN2CCN(C)CC2)c1Cl [Example 250, (2R)-3-{2-[(2-aminopyrimidin-4-yl)methoxy]phenyl}-2-{[(5Sa)-5-{3-chloro-2-methyl-4-[2-(4-methylpiperazin-1-yl)ethoxy]phenyl}-6-(furan-2-yl)thieno[2,3-d]pyrimidin-4-yl]oxy}propanoic acid] | 3.6e-09 |  | 0.499 | 
Cc1c(-c2c(-c3ccco3)sc3ncnc(OC(Cc4ccccc4OCc4ncccn4)C(=O)O)c23)ccc(OCCN2CCN(C)CC2)c1Cl [Example 286, (2R)-2-{[(5Sa)-5-{3-chloro-2-methyl-4-[2-(4-methylpiperazin-1-yl)ethoxy]phenyl}-6-(furan-2-yl)thieno[2,3-d]pyrimidin-4-yl]oxy}-3-[2-(pyrimidin-2-ylmethoxy)phenyl]propanoic acid] | 7.6e-09 |  |  | 0.508
Cc1c(-c2c(-c3ccco3)sc3ncnc(OC(Cc4ccccc4OCC4CC4)C(=O)O)c23)ccc(OCCN2CCN(C)CC2)c1Cl [Example 229, (2R)-2-{[(5Sa)-5-{3-chloro-2-methyl-4-[2-(4-methylpiperazin-1-yl)ethoxy]phenyl}-6-(furan-2-yl)thieno[2,3-d]pyrimidin-4-yl]oxy}-3-[2-(cyclopropylmethoxy)phenyl]propanoic acid] | 4.5e-09 |  |  | 0.134
COc1ccccc1C[C@@H](Oc1ncnc2sc(-c3ccco3)c(-c3ccc(OCCN4CCN(C)CC4)c(Cl)c3F)c12)C(=O)O [Example 337, (2R)-2-{[5-{3-chloro-2-fluoro-4-[2-(4-methylpiperazin-1-yl)ethoxy]phenyl}-6-(furan-2-yl)thieno[2,3-d]pyrimidin-4-yl]oxy}-3-(2-methoxyphenyl)propanoic acid] | 3.8e-08 |  |  | 1.87
CNC(=O)COc1ccccc1CC(Oc1ncnc2sc(-c3ccco3)c(-c3ccc(OCCN4CCN(C)CC4)c(Cl)c3C)c12)C(=O)O [Example 218, (2R)-2-{[(5Sa)-5-{3-chloro-2-methyl-4-[2-(4-methylpiperazin-1-yl)ethoxy]phenyl}-6-(furan-2-yl)thieno[2,3-d]pyrimidin-4-yl]oxy}-3-{2-[2-(methylamino)-2-oxoethoxy]phenyl}propanoic acid] | 6.5e-09 |  |  | 0.805
Cc1c(-c2c(-c3ccc(F)o3)sc3ncnc(OC(Cc4ccccc4OCc4ccc(F)cn4)C(=O)O)c23)ccc(OCCN2CCN(C)CC2)c1Cl [Example 163, (2R)-2-{[(5Sa)-5-{3-chloro-2-methyl-4-[2-(4-methylpiperazin-1-yl)ethoxy]phenyl}-6-(5-fluorofuran-2-yl)thieno[2,3-d]pyrimidin-4-yl]oxy}-3-{2-[(5-fluoropyridin-2-yl)methoxy]phenyl}propanoic acid] | 1.2e-08 |  |  | 0.047

Continued, in another order:

IC50 (Mcl-1 protein; [2]) [M] | IC50 (Mcl-1 protein; [3]) [M] | Structure (SMILES) | IC50 [1] [µM] | IC50 ([1]; Homo sapiens, NCI-H929, 48 h) [µM]
 | 6.1e-09 | COCc1cc(-c2sc3ncnc(OC(Cc4ccccc4OCc4ccnc(OC)n4)C(=O)O)c3c2-c2ccc(OCCN3CCN(C)CC3)c(Cl)c2C)ccc1F [Example 594, (2R)-2-[((5Sa)-5-{3-chloro-2-methyl-4-[2-(4-methylpiperazin-1-yl)ethoxy]phenyl}-6-[4-fluoro-3-(methoxymethyl)phenyl]thieno[2,3-d]pyrimidin-4-yl)oxy]-3-{2-[(2-methoxypyrimidin-4-yl)methoxy]phenyl}propanoic acid] |  | 0.13
5.6e-09 |  | Cc1c(-c2c(-c3ccc(Cl)o3)sc3ncnc(OC(Cc4ccccc4OCc4cncnc4)C(=O)O)c23)ccc(OCCN2CCN(C)CC2)c1Cl [Example 375, (2R)-2-{[6-(5-chlorofuran-2-yl)-(5Sa)-5-{3-chloro-2-methyl-4-[2-(4-methylpiperazin-1-yl)ethoxy]phenyl}thieno[2,3-d]pyrimidin-4-yl]oxy}-3-[2-(pyrimidin-5-ylmethoxy)phenyl]propanoic acid] |  | 0.081
 | 6.6e-07 | COc1ccccc1CC(Oc1ncnc2sc(-c3ccc(F)cc3)c(-c3ccc(OCCN4CCN(C)CC4)c(Cl)c3C)c12)C(=O)OCOC(=O)C(C)(C)C [Example 643, {[(2R)-2-{[(5Sa)-5-{3-chloro-2-methyl-4-[2-(4-methylpiperazin-1-yl)ethoxy]phenyl}-6-(4-fluorophenyl)thieno[2,3-d]pyrimidin-4-yl]oxy}-3-(2-methoxyphenyl)propanoyl]oxy}methyl 2,2-dimethylpropanoate] |  | 0.303
 | 1.1e-08 | Cc1c(-c2c(-c3ccco3)sc3ncnc(OC(Cc4ccccc4OCc4ccnn4C)C(=O)O)c23)ccc(OCCN(C)C)c1Cl [Example 668, (2R)-2-{[(5Sa)-5-{3-chloro-4-[2-(dimethylamino)ethoxy]-2-methylphenyl}-6-(furan-2-yl)thieno[2,3-d]pyrimidin-4-yl]oxy}-3-{2-[(1-methyl-1H-pyrazol-5-yl)methoxy]phenyl}propanoic acid] |  | 0.13
 | 2.9e-08 | CC#Cc1sc2ncnc(OC(Cc3ccccc3OC)C(=O)O)c2c1-c1ccc(OCCN2CCN(C)CC2)c(F)c1C [Example 687, (2R)-2-{[(5Sa)-5-{3-fluoro-2-methyl-4-[2-(4-methylpiperazin-1-yl)ethoxy]phenyl}-6-(prop-1-yn-1-yl)thieno[2,3-d]pyrimidin-4-yl]oxy}-3-(2-methoxyphenyl)propanoic acid] |  | 3.66
 | 5.5e-09 | Cc1c(-c2c(-c3ccc(F)cc3)sc3ncnc(OC(Cc4ccccc4OCc4ccnn4C(C)C)C(=O)O)c23)ccc(OCCN(C)C)c1Cl [Example 752, (2R)-2-{[(5Sa)-5-{3-chloro-4-[2-(dimethylamino)ethoxy]-2-methylphenyl}-6-(4-fluorophenyl)thieno[2,3-d]pyrimidin-4-yl]oxy}-3-(2-{[1-(propan-2-yl)-1H-pyrazol-5-yl]methoxy}phenyl)propanoic acid] |  | 0.084
 | 4.6e-08 | CCc1sc2ncnc(OC(Cc3ccccc3F)C(=O)O)c2c1-c1ccc(OCCN2CCN(C)CC2)c(Cl)c1C [Example 463, (2R)-2-[((5Sa)-5-{3-chloro-2-methyl-4-[2-(4-methylpiperazin-1-yl)ethoxy]phenyl}-6-ethylthieno[2,3-d]pyrimidin-4-yl)oxy]-3-(2-fluorophenyl)propanoic acid] |  | 5.11
1.4e-08 |  | COc1c(F)cccc1CC(Oc1ncnc2sc(-c3ccco3)c(-c3ccc(OCCN4CCN(C)CC4)c(Cl)c3C)c12)C(=O)O [Example 352, (2R)-2-{[(5Sa)-5-{3-chloro-2-methyl-4-[2-(4-methylpiperazin-1-yl)ethoxy]phenyl}-6-(furan-2-yl)thieno[2,3-d]pyrimidin-4-yl]oxy}-3-(3-fluoro-2-methoxyphenyl)propanoic acid] |  | 0.91
 | 4.8e-07 | COc1ccccc1CC(Oc1ncnc2sc(-c3ccccc3Cl)c(-c3ccc(OCCN4CCN(C)CC4)c(Cl)c3C)c12)C(=O)O [Example 565, (2R)-2-{[(5Sa)-5-{3-chloro-2-methyl-4-[2-(4-methylpiperazin-1-yl)ethoxy]phenyl}-6-(2-chlorophenyl)thieno[2,3-d]pyrimidin-4-yl]oxy}-3-(2-methoxyphenyl)propanoic acid] |  | 1.96
